PubChem BioAssay (NCI)
Where “and” joins values, the source holds several entries; their conditions need not be identical. Equal entries are not always repeated.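 Cells were grown in 96-well plates and exposed to each compound for 48 hours at five concentrations; endpoints were interpolated linearly between bracketing concentrations, or set to the highest concentration if not reached. GI50 marks 50% less growth. TGI: total growth inhibition.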

Assays:
Experiment in all cases: NCI anticancer screen, dose series, 48 h
[1] = system: 786-0 renal
[2] = system: A498 renal
[3] = system: A549 NSCLC
[4] = system: ACHN renal
[5] = system: BT-549 breast
[6] = system: CAKI-1 renal
[7] = system: CCRF-CEM leukemia
[8] = system: COLO 205 colon
[9] = system: DU-145 prostate
[10] = system: EKVX NSCLC
[11] = system: HCC-2998 colon
[12] = system: HCT-116 colon
[13] = system: HCT-15 colon
[14] = system: HL-60(TB) leukemia
[15] = system: HOP-62 NSCLC
[16] = system: HOP-92 NSCLC
[17] = system: HS 578T breast
[18] = system: HT29 colon
[19] = system: IGROV1 ovarian
[20] = system: K-562 leukemia
[21] = system: KM12 colon
[22] = system: LOX IMVI melanoma
[23] = system: M14 melanoma
[24] = system: MALME-3M melanoma
[25] = system: MCF7 breast
[26] = system: MDA-MB-231 breast
[27] = system: MDA-MB-435
[28] = system: MDA-N
[29] = system: MOLT-4 leukemia
[30] = system: NCI-H226 lung
[31] = system: NCI-H23 lung
[32] = system: NCI-H460 lung
[33] = system: NCI-H522 lung
[34] = system: NCI/ADR-RES ovarian
[35] = system: OVCAR-3 ovarian
[36] = system: OVCAR-4 ovarian
[37] = system: OVCAR-5 ovarian
[38] = system: OVCAR-8 ovarian
[39] = system: PC-3 prostate
[40] = system: RPMI-8226 leukemia
[41] = system: RXF 393 renal
[42] = system: SF-268 CNS
[43] = system: SF-295 CNS
[44] = system: SF-539 CNS
[45] = system: SK-MEL-2 melanoma
[46] = system: SK-MEL-28 melanoma
[47] = system: SK-MEL-5 melanoma
[48] = system: SK-OV-3 ovarian
[49] = system: SN12C renal
[50] = system: SNB-19 CNS
[51] = system: SNB-75 CNS
[52] = system: SR leukemia
[53] = system: SW-620 colon
[54] = system: T-47D breast
[55] = system: TK-10 renal
[56] = system: U251 CNS
[57] = system: UACC-257 melanoma
[58] = system: UACC-62 melanoma
[59] = system: UO-31 renal

Work on `O=c1ccn(C2OC(CO)C(O)C2F)c(=O)[nH]1` (centres undefined) yielded a GI50 [1] greater than 1000 µM, a TGI [1] greater than 1000 µM and a GI50 [2] greater than 1000 µM. It also gave a TGI [2] greater than 1000 µM, a GI50 [3] greater than 1000 µM and a TGI [3] greater than 1000 µM. For the same compound, the GI50 [4] was greater than 1000 µM, the TGI [4] was greater than 1000 µM and the GI50 [5] was greater than 85.9 µM. The TGI [5] was greater than 100 µM, the GI50 [6] was greater than 88.9 µM and the TGI [6] was greater than 100 µM. For the same compound, the TGI [7] was greater than 1000 µM, the GI50 [8] was greater than 1000 µM and the TGI [8] was greater than 1000 µM. For the same compound, the GI50 [9] was greater than 1000 µM, the TGI [9] was greater than 1000 µM and the GI50 [10] was greater than 1000 µM. The TGI [10] was greater than 1000 µM, the TGI [11] was greater than 100 µM and the GI50 [12] was greater than 1000 µM. The TGI [12] was greater than 1000 µM, the GI50 [13] was greater than 1000 µM and the TGI [13] was greater than 1000 µM. The GI50 [14] was greater than 1000 µM, the TGI [14] was greater than 1000 µM and the GI50 [15] was greater than 1000 µM. The TGI [15] was greater than 1000 µM, the GI50 [16] was greater than 1000 µM and the TGI [16] was greater than 1000 µM. It also gave a GI50 [17] greater than 1000 µM, a TGI [17] greater than 1000 µM and a GI50 [18] greater than 1000 µM. The TGI [18] was greater than 1000 µM, the GI50 [19] was greater than 1000 µM and the TGI [19] was greater than 1000 µM. The GI50 [20] was greater than 1000 µM, the TGI [20] was greater than 1000 µM and the GI50 [21] was greater than 1000 µM. For the same compound, the TGI [21] was greater than 1000 µM, the GI50 [22] was greater than 1000 µM and the TGI [22] was greater than 1000 µM. The GI50 [23] was greater than 1000 µM, the TGI [23] was greater than 1000 µM and the GI50 [24] was greater than 1000 µM. For the same compound, the TGI [24] was greater than 1000 µM, the GI50 [25] was greater than 1000 µM and the TGI [25] was greater than 1000 µM. The GI50 [26] was greater than 1000 µM, the TGI [26] was greater than 1000 µM and the GI50 [27] was greater than 1000 µM. For the same compound, the TGI [27] was greater than 1000 µM, the TGI [28] was greater than 100 µM and the GI50 [29] was greater than 1000 µM. For the same compound, the TGI [29] was greater than 1000 µM, the GI50 [30] was greater than 1000 µM and the TGI [30] was greater than 1000 µM. The GI50 [31] was greater than 1000 µM, the TGI [31] was greater than 1000 µM and the GI50 [32] was greater than 1000 µM. For the same compound, the TGI [32] was greater than 1000 µM, the GI50 [33] was greater than 1000 µM and the TGI [33] was greater than 1000 µM. For the same compound, the GI50 [34] was greater than 1000 µM, the TGI [34] was greater than 1000 µM and the GI50 [35] was greater than 1000 µM. For the same compound, the TGI [35] was greater than 1000 µM, the GI50 [36] was 26 µM and the TGI [36] was 840 µM and > 100 µM. It also gave a GI50 [37] greater than 1000 µM, a TGI [37] greater than 1000 µM and a GI50 [38] greater than 1000 µM. It also gave a TGI [38] greater than 1000 µM, a GI50 [39] greater than 1000 µM and a TGI [39] greater than 1000 µM. For the same compound, the GI50 [40] was greater than 1000 µM, the TGI [40] was greater than 1000 µM and the GI50 [41] was greater than 1000 µM. It also gave a TGI [41] greater than 1000 µM, a GI50 [42] greater than 1000 µM and a TGI [42] greater than 1000 µM. The GI50 [43] was greater than 1000 µM, the TGI [43] was greater than 1000 µM and the GI50 [44] was greater than 1000 µM. For the same compound, the TGI [44] was greater than 1000 µM, the GI50 [45] was greater than 1000 µM and the TGI [45] was greater than 1000 µM. It also gave a GI50 [46] greater than 1000 µM, a TGI [46] greater than 1000 µM and a GI50 [47] greater than 1000 µM. The TGI [47] was greater than 1000 µM, the GI50 [48] was greater than 1000 µM and the TGI [48] was greater than 1000 µM. The GI50 [49] was greater than 1000 µM, the TGI [49] was greater than 1000 µM and the GI50 [50] was greater than 1000 µM. It also gave a TGI [50] greater than 1000 µM, a TGI [51] greater than 100 µM and a GI50 [52] greater than 1000 µM. It also gave a TGI [52] greater than 1000 µM, a GI50 [53] greater than 1000 µM and a TGI [53] greater than 1000 µM. For the same compound, the GI50 [54] was greater than 1000 µM, the TGI [54] was greater than 1000 µM and the GI50 [55] was greater than 1000 µM. It also gave a TGI [55] greater than 1000 µM, a GI50 [56] greater than 1000 µM and a TGI [56] greater than 1000 µM. The GI50 [57] was greater than 1000 µM, the TGI [57] was greater than 1000 µM and the GI50 [58] was greater than 1000 µM. It also gave a TGI [58] greater than 1000 µM, a GI50 [59] greater than 1000 µM and a TGI [59] greater than 1000 µM.
